Data as given in ChEMBL document CHEMBL1201862, “PubChem BioAssay data set” (2004).
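Where inhibition never reached the appropriate level, the endpoint shown equals the highest concentration tested. Otherwise, values were interpolated linearly from a five-concentration, 48-hour dose response in 96-well plates. GI50: concentration for 50% inhibition of growth.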 Calls of active or inactive are those of the source. Cut-off read from the data, not from the text of the source: active = GI50 up to about 1.1 µM and inactive = higher.

What was measured:
Experiment in all cases: DTP human tumour cell line panel, 48 h
[1] = tested on: MOLT-4
[2] = tested on: SR
[3] = tested on: DU-145
[4] = tested on: SNB-19
[5] = tested on: CCRF-CEM
[6] = tested on: 786-0
[7] = tested on: SK-MEL-5
[8] = tested on: NCI-H226
[9] = tested on: SW-620
[10] = tested on: EKVX
[11] = tested on: BT-549
[12] = tested on: IGROV-1
[13] = tested on: RXF 393
[14] = tested on: K562
[15] = tested on: T47D
[16] = tested on: HOP-62
[17] = tested on: SF-295
[18] = tested on: OVCAR-5
[19] = tested on: UO-31
[20] = tested on: SF-268
[21] = tested on: M14
[22] = tested on: HCT-15
[23] = tested on: MDA-MB-231
[24] = tested on: MDA-MB-435
[25] = tested on: HT-29
[26] = tested on: HCC 2998
[27] = tested on: A549
[28] = tested on: SK-MEL-28
[29] = tested on: U-251
[30] = tested on: HL-60
[31] = tested on: MCF7
[32] = tested on: TK-10
[33] = tested on: SN12C
[34] = tested on: SF-539
[35] = tested on: HCT-116
[36] = tested on: A498
[37] = tested on: KM12
[38] = tested on: Hs-578T
[39] = tested on: OVCAR-3
[40] = tested on: MDA-N
[41] = tested on: Malme-3M
[42] = tested on: PC-3
[43] = tested on: UACC-62
[44] = tested on: NCI/ADR-RES
[45] = tested on: SK-MEL-2
[46] = tested on: OVCAR-8
[47] = tested on: NCI-H23
[48] = tested on: ACHN
[49] = tested on: SK-OV-3
[50] = tested on: NCI-H460

SMILES: CCCC(=O)N/S(=N/S(=O)(=O)c1ccc(Cl)cc1)C(Cl)(Cl)Cl (stereo not given)
- GI50 [1]: > 100 µM (inactive)
- GI50 [2]: > 100 µM (inactive)
- GI50 [3]: > 100 µM (inactive)
- GI50 [4]: > 100 µM (inactive)
- GI50 [5]: > 100 µM (inactive)
- GI50 [6]: > 100 µM (inactive)
- GI50 [7]: > 100 µM (inactive)
- GI50 [8]: > 100 µM (inactive)
- GI50 [9]: > 100 µM (inactive)
- GI50 [10]: > 100 µM (inactive)
- GI50 [11]: > 100 µM (inactive)
- GI50 [12]: > 100 µM (inactive)
- GI50 [13]: > 100 µM (inactive)
- GI50 [14]: > 100 µM (inactive)
- GI50 [15]: > 100 µM (inactive)
- GI50 [16]: > 100 µM (inactive)
- GI50 [17]: > 100 µM (inactive)
- GI50 [18]: > 100 µM (inactive)
- GI50 [19]: > 100 µM (inactive)
- GI50 [20]: > 100 µM (inactive)
- GI50 [21]: > 100 µM (inactive)
- GI50 [22]: > 100 µM
- GI50 [23]: > 100 µM (inactive)
- GI50 [24]: > 100 µM (inactive)
- GI50 [25]: > 100 µM (inactive)
- GI50 [26]: > 100 µM (inactive)
- GI50 [27]: > 100 µM (inactive)
- GI50 [28]: > 100 µM (inactive)
- GI50 [29]: 47.9 µM (inactive)
- GI50 [30]: > 100 µM (inactive)
- GI50 [31]: > 100 µM (inactive)
- GI50 [32]: > 100 µM (inactive)
- GI50 [33]: > 100 µM (inactive)
- GI50 [34]: > 100 µM (inactive)
- GI50 [35]: > 100 µM (inactive)
- GI50 [36]: > 100 µM (inactive)
- GI50 [37]: > 100 µM (inactive)
- GI50 [38]: > 100 µM (inactive)
- GI50 [39]: > 100 µM (inactive)
- GI50 [40]: > 100 µM (inactive)
- GI50 [41]: > 100 µM (inactive)
- GI50 [42]: > 100 µM (inactive)
- GI50 [43]: > 100 µM (inactive)
- GI50 [44]: > 100 µM (inactive)
- GI50 [45]: 16.5 µM (inactive)
- GI50 [46]: > 100 µM (inactive)
- GI50 [47]: > 100 µM (inactive)
- GI50 [48]: > 100 µM (inactive)
- GI50 [49]: > 100 µM (inactive)
- GI50 [50]: > 100 µM (inactive)
